{"source": "BigSolDB 2.1", "data": [{"molecule": "O=[N+]([O-])c1ccc(Cl)c(Cl)c1", "values": [{"measurement": "solubility (mole fraction)", "setting": "in ethanol, 278.15 K", "value": 0.02}, {"measurement": "solubility (mole fraction)", "setting": "in ethanol, 280.65 K", "value": 0.0271}, {"measurement": "solubility (mole fraction)", "setting": "in ethanol, 283.15 K", "value": 0.0352}, {"measurement": "solubility (mole fraction)", "setting": "in ethanol, 285.65 K", "value": 0.0444}, {"measurement": "solubility (mole fraction)", "setting": "in ethanol, 288.15 K", "value": 0.0549}, {"measurement": "solubility (mole fraction)", "setting": "in ethanol, 290.65 K", "value": 0.0661}, {"measurement": "solubility (mole fraction)", "setting": "in ethanol, 293.15 K", "value": 0.0769}, {"measurement": "solubility (mole fraction)", "setting": "in ethanol, 295.65 K", "value": 0.0888}, {"measurement": "solubility (mole fraction)", "setting": "in ethanol, 298.15 K", "value": 0.0997}, {"measurement": "solubility (mole fraction)", "setting": "in ethanol, 300.65 K", "value": 0.111}, {"measurement": "solubility (mole fraction)", "setting": "in ethanol, 303.15 K", "value": 0.119}, {"measurement": "solubility (mole fraction)", "setting": "in methanol, 278.15 K", "value": 0.0208}, {"measurement": "solubility (mole fraction)", "setting": "in methanol, 280.65 K", "value": 0.0251}, {"measurement": "solubility (mole fraction)", "setting": "in methanol, 283.15 K", "value": 0.0296}, {"measurement": "solubility (mole fraction)", "setting": "in methanol, 285.65 K", "value": 0.0353}, {"measurement": "solubility (mole fraction)", "setting": "in methanol, 288.15 K", "value": 0.0422}, {"measurement": "solubility (mole fraction)", "setting": "in methanol, 290.65 K", "value": 0.0505}, {"measurement": "solubility (mole fraction)", "setting": "in methanol, 293.15 K", "value": 0.0611}, {"measurement": "solubility (mole fraction)", "setting": "in methanol, 295.65 K", "value": 0.0724}, {"measurement": "solubility (mole fraction)", "setting": "in methanol, 298.15 K", "value": 0.0873}, {"measurement": "solubility (mole fraction)", "setting": "in methanol, 300.65 K", "value": 0.105}, {"measurement": "solubility (mole fraction)", "setting": "in methanol, 303.15 K", "value": 0.125}]}]}
